# Experimental data from patent US20210069295A1, “GALECTINS CONTROL MTOR IN RESPONSE TO ENDOMEMBRANE DAMAGE AND PROVIDE A MECHANISM AND TARGET FOR THE TREATMENT OF AUTOPHAGY-RELATED DISEASES” (STC. UNM, priority 2017, published 2021).
# Peptide text beside a SMILES is read from it.
# Experiments:
# Type in all cases: cell-based
# [1] = tested on: mTOR; assay: mTOR activity by immunoblotting of S6K1 (T389) and ULK1 (S757) phosphorylation in HEK293T cells
# Procedure: (§1) (A) Dose-response analysis of mTOR activity in HEK293T cells treated with glycyl-L-phenylalanine 2-naphththylamide (GPN) in full medium for 1 h. mTOR activity was monitored by inununoblotting analysis of S6K1 (T389) and ULK1 (S757) phosphorylation (phosphorylated S6K (T389) and ULK1 (S757) relative to total S6K and ULK1, respectively). (B) Analysis of mTOR activity (as in A) after GPN washout. HEK293T cells were treated with 100 μM GPN for 1 h followed by 1 h washout in full medium. Data, means±SEM (n=3), **p<0.01, ANOVA. (C) Analysis of mTOR activity (as in A) in HEK293T cells treated with increasing doses of silica in full medium for 1 h. (D) HEK293T cells were treated with lysosomal damaging agents (LLOMe, Leu-Leu-OMe) for 1 h in full medium and status of acidified organelles assessed by quantifying LysoTracker Red DND-99 puncta using automated high-content imaging and analysis (HC). None-treated cells were as control (Ctrl). White masks, algorithm defined cell boundaries (primary objects); yellow masks, computer-identified LysoTracker Red puncta (target objects). Data, means±SEM, n≥3 independent experiments (500 primary objects counted per well; ≥5 wells/sample per each experiment), **p<0.01, ANOVA. (E) Analysis of mTOR activity in primary human macrophages treated with GPN. Human peripheral blood monocyte derived macrophages were treated with 100 μM GPN in full medium or starved in EBSS for 1 h, and mTOR activity measured as in A. None-treated cells were as control (Ctrl). (F) Quantification by HC of overlaps between mTOR and LAMP2 (representative images shown in FIG. S1D) in HeLa cells treated with lysosomal damaging agents for 1 h in full medium. Data, means±SEM, n≥3 independent experiments (500 primary objects counted per well; ≥5 wells/sample per each experiment) **p<0.01, ANOVA. (G) Immunofluorescence confocal microscopy visualization of mTOR localization relative to LAMP2-positive lysosomes. […] (H) Analysis of TFEB nuclear translocation in HeLa cells treated with 100 μM GPN in full medium for 1 h, and the nuclear translocation of TFEB was measured by HC (Nuclei, Hoechst 33342, blue pseudocolor; TFEB red fluorescence, Alexa-568). […] White masks, computer algorithm-defined cell boundaries (primary objects); pink masks, computer-identified nuclear TFEB based on the average intensity of Alexa-568 fluorescence. Data, means±SEM, n≥3 independent experiments (500 primary objects counted per well; ≥5 wells/sample per each experiment), **p<0.01, ANOVA. (I) HeLa cells were treated as indicated in full medium for 1 h, and LC3 puncta were quantified by HC. […] Data, means±SEM, n≥3 independent experiments (500 primary objects counted per well; ≥5 wells/sample per each experiment), **p<0.01, ANOVA. […]
# [2] = tested on: mTOR; assay: mTOR localization relative to LAMP2-positive lysosomes (HC and confocal microscopy)
# Procedure: as §1
# [3] = tested on: AMPK; assay: AMPK activation by immunoblotting of phosphorylated AMPKα, ACC and ULK1 in HEK293A cells
# [4] = HEK293T stably expressing RagBQ99L, 100 μM GPN 1 h
compound,measurement,setting,value
"NCC(=O)N[C@@H](Cc1ccccc1)C(=O)Nc1ccc2ccccc2c1 [GPN, glycyl-L-phenylalanine 2-naphththylamide] (HELM PEPTIDE1{G.F.[c1ccc2cc(N[*:1])ccc2c1]}$$$$V2.0)",mTOR activity after washout,[1]; 100 μM GPN for 1 h followed by 1 h washout in full medium,reversed
same,mTOR activity (phosphorylation of its substrates S6K1 and ULK1),"[1]; HEK293T cells, full medium, 1 h",diminished mTOR activity
same,mTOR activity (S6K1 phosphorylation) in cells expressing constitutively active RagBQ99L,[1]; [4],not the case
same,mTOR localization in cells expressing RagBQ99L,[2]; [4],remained on lysosomes
same,"mTOR localization (lysosomes vs cytosol, overlap with LAMP2)","[2]; HeLa cells, 1 h full medium",translocated from lysosomes to the cytosol
same,ULK1 pS317 (activating AMPK phosphosite),[3]; 100 μM GPN,increase
same,ULK1 pS757 (mTOR-dependent inactivating phosphosite),[3]; 100 μM GPN,decreased
same,phosphorylation of S79 of acetyl-CoA carboxylase (ACC),[3]; 100 μM GPN,elevated phosphorylation
same,AMPK activation (AMPKα T172 phosphorylation),"[3]; HEK293A, 100 μM GPN in full medium",activated
